Experiments:
PDE10A [1] = biological target: T1, PDE10A (Rattus norvegicus, UniProt Q9QYJ6); test: In vitro autoradiography on sagittal rat brain slices; type: binding; conditions: 25 nM [18F]IV
T1 construct: Frozen sagittal brain sections (12 μm) obtained from female SPRD rats (8–10 weeks); from tissue; host or cells: rat brain sections (female SPRD rats)
T1 sequence (Q9QYJ6 1-794): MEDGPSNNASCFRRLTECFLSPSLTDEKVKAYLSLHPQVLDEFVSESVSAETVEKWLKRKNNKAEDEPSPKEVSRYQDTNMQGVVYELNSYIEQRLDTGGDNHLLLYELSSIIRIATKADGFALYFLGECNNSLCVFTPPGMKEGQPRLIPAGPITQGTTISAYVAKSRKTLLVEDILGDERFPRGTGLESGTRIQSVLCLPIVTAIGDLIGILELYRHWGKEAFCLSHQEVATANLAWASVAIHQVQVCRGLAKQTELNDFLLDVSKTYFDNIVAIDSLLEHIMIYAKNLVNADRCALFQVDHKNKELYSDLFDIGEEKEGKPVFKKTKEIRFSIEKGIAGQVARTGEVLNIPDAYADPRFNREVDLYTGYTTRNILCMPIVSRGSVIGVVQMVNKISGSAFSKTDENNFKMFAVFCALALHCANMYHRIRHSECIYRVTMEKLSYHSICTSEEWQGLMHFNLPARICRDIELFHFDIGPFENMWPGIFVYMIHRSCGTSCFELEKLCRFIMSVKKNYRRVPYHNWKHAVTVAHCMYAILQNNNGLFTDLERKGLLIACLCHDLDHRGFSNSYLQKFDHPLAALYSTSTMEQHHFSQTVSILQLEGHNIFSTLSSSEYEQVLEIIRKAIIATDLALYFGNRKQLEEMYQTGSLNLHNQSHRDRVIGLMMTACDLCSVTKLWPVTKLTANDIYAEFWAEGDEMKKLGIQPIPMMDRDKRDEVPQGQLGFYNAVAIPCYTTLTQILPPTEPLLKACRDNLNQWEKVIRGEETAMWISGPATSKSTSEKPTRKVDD
Text: Figure 3 Representative color-coded autoradiographic images of sagittal rat brain slices. […] CP, caudate putamen; NA, nucleus accumbens; OT, olfactory tubercle; Th, thalamus; Hi, hippocampus; SN, substantia nigra; Cb, cerebellum; Co, cortex; OB, olfactory bulb; PN, pontine nuclei.
This pattern corresponds with the immunohistochemical localization of PDE10A in rat brain described in Seeger et al..
Therefore, species-specific patterns of PDE expression have to be considered in the development of PDE10A targeting PET ligands based on the herein reported quinazoline structures. […]
Frozen sagittal brain sections (12 μm) obtained from female SPRD rats (8–10 weeks) were thawed, dried in a stream of cold air, preincubated for 20 min with 50 mM TRIS-HCl, pH 7.4, at room temperature, and dried again. […] After incubation, sections were washed twice for 2 min with 50 mM TRIS-HCl, pH 7.4 at 4 °C, dipped briefly in ice-cold deionized water (5 s), dried in a stream of cold air, and exposed for 17 h to ^18F-sensitive storage phosphor screens, which were analyzed using the BAS-1800 II system (see above).

PDE10A [2] = test: In vivo blocking study (pre-injection of PDE10A inhibitor); set-up: species or system mice
Description: The observed slightly increase in the uptake of radioactivity in most organs might be caused by an increase in the free fraction of [^18F]IV in plasma or changes in physiological parameters such as blood flow due to high concentrations of the blocking compounds.
Specificity of brain and in particular striatal uptake of [^18F]IV was investigated in blocking studies by intraperitoneal injection of 10 mg/kg of I [31] […] (n = 3), dissolved in 200 µL saline at 10 min before the radiotracer. Mice were sacrificed at 60 min p.i., and the radioligand uptake was determined as described above. Data listed in table 2 are given as mean values ± standard deviation (SD).

[3] = blocking with 10 mg/kg I, 60 min p.i.
[4] = blocking with 10 mg/kg MP-10, 60 min p.i.

## COc1cc2c(N3CC[C@@H](Oc4cnc5ccccc5n4)C3)ncnc2cc1OCC[18F] [[^18F]IV, (R)-7-(2-[^18F]Fluoroethoxy)-6-methoxy-4-(3-(quinoxalin-2-yloxy)pyrrolidin-1-yl)quinazoline]
PDE10A [1]; 10 μM IV, 60 min
  binding of [18F]IV on rat brain slices, co-incubation with IV: saturable binding
PDE10A [1]; 10 μM MP-10, 60 min
  inhibition of [18F]IV binding on rat brain slices by MP-10: not completely inhibited
PDE10A [2]; 10 mg/kg i.p. 10 min before radiotracer, 60 min p.i., p > 0.05
  change in accumulated radioactivity in PDE10A-expressing organs after pre-injection of MP-10 or compound I: no significant changes
PDE10A [2]; [3]
  18F uptake, Adrenals: 51.1 ± 17.9 % ID/g
  18F uptake, Bladder: 2.20 ± 0.49 % ID/g
  18F uptake, Blood: 1.72 ± 0.16 % ID/g
  18F uptake, Brain: 1.13 ± 0.17 % ID/g
  18F uptake, Colon: 1.07 ± 0.22 % ID/g
  18F uptake, Femurs: 1.62 ± 0.72 % ID/g
  18F uptake, Femurs (fl.) (flushed): 0.81 ± 0.13 % ID/g
  18F uptake, Gonads: 3.30 ± 0.29 % ID/g
  18F uptake, Heart: 2.30 ± 0.22 % ID/g
  18F uptake, Intestine: 44.3 ± 9.58 % ID/g
  18F uptake, Kidneys: 4.01 ± 0.54 % ID/g
  18F uptake, Liver: 12.9 ± 1.08 % ID/g
  18F uptake, Lungs: 2.62 ± 0.44 % ID/g
  18F uptake, Muscles: 1.27 ± 0.25 % ID/g
  18F uptake, Pancreas: 2.25 ± 0.26 % ID/g
  18F uptake, Plasma: 2.70 ± 0.24 % ID/g
  18F uptake, Skin: 2.26 ± 0.82 % ID/g
  18F uptake, Spleen: 2.48 ± 0.68 % ID/g
  18F uptake, Stomach: 13.8 ± 1.65 % ID/g
  18F uptake, Striatum: 1.28 ± 0.27 % ID/g
  18F uptake, Thymus: 2.22 ± 0.08 % ID/g
  18F uptake, Urine: 18.0 ± 9.26 % ID/g
PDE10A [2]; [4]
  18F uptake, Adrenals: 36.0 ± 9.51 % ID/g
  18F uptake, Bladder: 2.93 ± 0.51 % ID/g
  18F uptake, Blood: 1.85 ± 0.50 % ID/g
  18F uptake, Brain: 1.30 ± 0.20 % ID/g
  18F uptake, Colon: 1.78 ± 0.78 % ID/g
  18F uptake, Femurs: 1.73 ± 0.58 % ID/g
  18F uptake, Femurs (fl.) (flushed): 0.92 ± 0.23 % ID/g
  18F uptake, Gonads: 4.10 ± 1.41 % ID/g
  18F uptake, Heart: 2.89 ± 0.42 % ID/g
  18F uptake, Intestine: 14.8 ± 4.16 % ID/g
  18F uptake, Kidneys: 5.87 ± 1.56 % ID/g
  18F uptake, Liver: 17.7 ± 3.87 % ID/g
  18F uptake, Lungs: 2.95 ± 0.86 % ID/g
  18F uptake, Muscles: 1.29 ± 0.37 % ID/g
  18F uptake, Pancreas: 3.19 ± 0.91 % ID/g
  18F uptake, Plasma: 3.34 ± 1.00 % ID/g
  18F uptake, Skin: 2.43 ± 0.44 % ID/g
  18F uptake, Spleen: 3.00 ± 0.79 % ID/g
  18F uptake, Stomach: 14.6 ± 7.83 % ID/g
  18F uptake, Striatum: 1.38 ± 0.30 % ID/g
  18F uptake, Thymus: 2.55 ± 0.62 % ID/g
  18F uptake, Urine: 14.7 ± 7.17 % ID/g
